The data set is described as follows: gradient 5% acetonitrile 3 min, to 50% in 2 min, to 85% in 15 min, held 3 min, 100 µL/min. Particulars: column: Zorbax Extend-C18 2.1 x 50 mm; eluents: water / acetonitrile, 0.1% formic acid. In short, it runs like this:
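Pure standards were run in mixtures of ~100 molecules by HPLC coupled to a quadrupole time-of-flight mass spectrometer. The column was a Zorbax Extend-C18 (2.1 × 50 mm, 1.8 μm) at 100 μL/min, with water and acetonitrile each containing 0.1% formic acid, in positive and negative ionization mode. Dead and dwell volumes were 40 μL and 900 μL. Retention time was taken from computationally picked adduct peaks, each manually inspected, with data collected over 3 months.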
Consider `CCOC(=O)c1nc(NCc2ccccc2OC)c2c(CC)noc2n1`, for which the RP-LC retention time stood at 943 s.
Turning to `CC1(C)CC(=O)c2cn(-c3ccc(F)cc3)c(=O)c(C(=O)Nc3cccnc3)c2C1`, the RP-LC retention time worked out at 707 s.
Consider `CC1=C(c2cccc(Cl)c2)S(=O)(=O)N=C1N1CCC(NC(=O)NCC(C)C)CC1`, for which the RP-LC retention time stood at 651 s.
The figure for `COc1ccc(OC)c(CNC(=O)c2ccc3c(c2)NC(=O)C2CCCCN32)c1` (centres undefined) is 806 s; for `CCn1c(C)c(CCC(=O)NC(C)C)c(=O)n2nc(-c3ccccc3)nc12` it is 706 s.
The figure for `Nc1nc(N2CCOCC2)nc2ccccc12` is 572 s; for `CCOC(=O)N1CCN(C2CC(=O)N(CCc3ccc(OC)c(OC)c3)C2=O)CC1` (centres undefined) it is 659 s.
For `Cc1cc(N2CCN(C(=O)CCCc3c[nH]c4ccccc34)CC2)nc2ccccc12`, the RP-LC retention time is 696 s.
With `Cc1cc2c(c(=O)n(-c3ccccc3)c(=O)n2CC(=O)Nc2ccc(C(C)C)cc2)n1C` the figure was 975 s.
Regarding `C=CC(=O)Nc1cccc(Oc2nc(Nc3ccc(N4CCN(C)CC4)cc3)ncc2Cl)c1`, the RP-LC retention time turned out to be 695 s.
Compound `CCc1nncn1C1CCN(S(=O)(=O)c2ccc(OC)c(Cl)c2)CC1` showed an RP-LC retention time of 736 s.
With `CCOC(=O)c1ccc(NC(=O)N2CCN(c3nc4ccccc4n3C)CC2)cc1` the figure was 658 s.
`CCOC(=O)C1CCCN(c2c(N3CCC(Cc4ccccc4)CC3)c(=O)c2=O)C1` (centres undefined) yielded an RP-LC retention time of 986 s.
The figure for `COc1ccccc1NC(=O)NC(C(=O)N1CCc2ccccc21)C(C)C` (centres undefined) is 723 s; for `COC1CCC12CCN(C(=O)C1CCCCC1)CC2` (centres undefined) it is 903 s.
On to `O=C(c1ccc2ccccc2n1)N1CCN(C(=O)c2nnn3c2COC(c2ccccc2)C3)CC1` (centres undefined), for which the RP-LC retention time was found to be 833 s.
On to `O=C(NC1CCCCCCC1)C1CC(=O)N(CCc2c[nH]c3ccc(F)cc23)C1` (centres undefined), for which the RP-LC retention time was 859 s.
For `CC(C)NC(=O)N1CCCC1c1nc(-c2cccc(Cl)c2)no1` (centres undefined), the RP-LC retention time stood at 906 s.
As to `Cc1ccc(-c2cc3c(=O)n(Cc4noc(CN5CCSCC5)n4)ccn3n2)c(C)c1`, the RP-LC retention time is 962 s.
As to `Cc1cc2c(cc1NC(=O)C1CCC(C)CC1)n(C)c(=O)c(=O)n2C` (centres undefined), the RP-LC retention time worked out at 733 s.
Compound `O=C(NCc1cccs1)c1coc(NC(=O)C2CC2)n1` gave an RP-LC retention time of 614 s.
The compound `Cc1nc2cc(-c3noc(-c4ccc5ccccc5n4)n3)ccc2o1` came in with an RP-LC retention time of 998 s.
Regarding `Cc1ccc(NC(=O)NCCCn2c(C(F)(F)F)nc3cccnc32)cc1F`, the RP-LC retention time stood at 866 s.
As to `COc1ccc(NC(=O)C2CCCN(S(=O)(=O)c3c[nH]c(C(=O)N4CCCCCC4)c3)C2)cc1` (centres undefined), the RP-LC retention time was found to be 842 s.
Take `CC1CCCCN1Cc1nc(Cn2ccn3nc(-c4ccccc4)cc3c2=O)no1` (centres undefined): the RP-LC retention time was found to be 658 s.
With `Cc1cc2c(cc1S(=O)(=O)N1CCCC1C(=O)NC1CCCC1)OCC(=O)N2` (centres undefined) the figure was 718 s.
With `COc1ccc(OC)c(NC(=O)C2c3cc(OC)c(OC)cc3C(=O)N(C)C2c2cccnc2)c1` (centres undefined), the RP-LC retention time was determined as 605 s.
`CCCN1CCN(c2cc(C(=O)O)c3cc(NS(=O)(=O)c4ccccc4C)ccc3n2)CC1` returned an RP-LC retention time of 605 s.
The figure for `CCOc1nn(CC)cc1C(=O)NCCc1c[nH]c2ccccc12` is 736 s.
Compound `COc1ccc(-c2ncc3c(n2)CCN(S(=O)(=O)c2ccc(OC)c(Cl)c2)C3)cc1` displayed an RP-LC retention time of 1080 s.
On to `CCc1noc(-c2nc(-c3ccc(F)c(F)c3)no2)n1`, for which the RP-LC retention time is 1090 s.
Take `COc1ccc(F)cc1S(=O)(=O)N1C[C@@H]2C[C@H]1C[C@@H]2NC(=O)c1cccs1`: the RP-LC retention time is 834 s.
The figure for `Clc1cccc(-c2nnc(-c3nc(NCCC4=CCCCC4)c4ccccc4n3)o2)c1` is 1370 s.
In turn, `Cn1cc(-c2ccncc2)cc1C(=O)NCc1ccc(F)c(Cl)c1` returned an RP-LC retention time of 664 s.
With `CN(C(=O)Cc1ccsc1)C1CCc2nn(C)c(=O)n2CC1` (centres undefined) the figure was 600 s; with `CC(C)Oc1ccc(-c2noc(CN3N=NC4C(=O)N(c5cccc(F)c5)C(=O)C43)n2)cc1` (centres undefined), 1050 s.
The figure for `COc1ccc(OC)c(N2C(=O)c3cccnc3C2Nc2ccc(C(C)=O)cc2)c1` (centres undefined) is 698 s; for `Cc1cc(NC(=O)c2nc3ccccc3s2)sn1` it is 809 s.
`Cc1cc(=O)n(CC(=O)N2CCc3ccccc32)c(N2CCCCC2)n1` returned an RP-LC retention time of 679 s.
With `O=C(Cn1cnc2ccccc2c1=O)NC1CCCC1`, the RP-LC retention time was 672 s.
As for `CCc1nc(OCC(=O)Nc2ccc(C)c(F)c2)c2ccccc2n1`, the RP-LC retention time turned out to be 872 s.
`CCCNC(=O)N1CCc2nc(-c3ccccc3)ncc2C1` showed an RP-LC retention time of 751 s.
The figure for `COc1cccc(-c2nc(-c3ccc(NS(=O)(=O)c4cccs4)cc3)no2)c1OC` is 1040 s; for `CCOc1ccc2nc(C(=O)NC3CCCC3)cn2n1` it is 822 s.
The figure for `O=C(Nc1ccc(Cl)cc1F)NC1CCN(c2cc(N3CCOCC3)cnn2)C1` (centres undefined) is 649 s; for `COc1ccc(-c2noc(CN3N=NC4C(=O)N(c5cccc(Cl)c5)C(=O)C43)n2)c(OC)c1` (centres undefined) it is 912 s; for `O=S(=O)(Cc1ccccc1)N1CCC(Cc2nncn2-c2ccccc2)C1` (centres undefined) it is 729 s.
With `O=C(Cc1cccs1)N1CCN(c2nnc3ccc(C(F)(F)F)cn23)CC1`, the RP-LC retention time came to 666 s.
The figure for `Cc1ccc(S(=O)(=O)N2CCC(n3cnc4c(C)cccc4c3=O)CC2)cc1` is 929 s; for `COc1ccc(C2C(C(=O)N3CCCC(C)C3)CCC(=O)N2c2cc(OC)c(OC)c(OC)c2)cc1` (centres undefined) it is 772 s.
Compound `C=C1C(=O)[C@]23[C@H](O)[C@H]1CC[C@H]2[C@@]12CO[C@]3(O)[C@@H](O)[C@@H]1C(C)(C)CC[C@@H]2O` displayed an RP-LC retention time of 794 s.
In turn, `CCn1ccc2c(cc(C(=O)Nc3ccc(C)cc3C)n2C)c1=O` came in with an RP-LC retention time of 753 s.
`COc1cccc(-c2nnc(Cc3nc(-c4ccc(OC)c(OC)c4)no3)o2)c1` returned an RP-LC retention time of 894 s.
With `COCCn1cc(CCNC(=O)Nc2ccccc2C)c2cccnc21` the figure was 694 s; with `CCn1c(=O)n(CC)c2cc(S(=O)(=O)c3ccc(C)cc3)c(NC(C)=O)cc21`, 759 s.
Compound `CCC(=O)Nc1ccc(S(=O)(=O)NC2CCN(c3ccc(=O)n(CC4CC4)n3)C2)cc1` (centres undefined) returned an RP-LC retention time of 712 s.
In the case of `Cc1ccc(C2c3[nH]c4ccccc4c3CCN2C(=O)C2CCC2)cc1` (centres undefined), the RP-LC retention time is 1200 s.
Consider `O=C(c1cc2ccc3cccnc3c2[nH]1)N1CCN(c2ccccn2)CC1`, for which the RP-LC retention time turned out to be 596 s.
Compound `COCC1(F)CCN(Cc2c(-c3cc(C)ccc3C)nc3cc(C)ccn23)CC1` came in with an RP-LC retention time of 636 s.

Source of the values: the METLIN SMRT retention time set (Domingo-Almenara et al. 2019).
